From patent US11787840B2, “Compositions and methods for treating and preventing autoimmune induced cardiac long QT syndrome” (The United States Government As Represented By The …, priority 2019, dated 2023)
“Also recorded” adds a separate entry of the source.

System: Ro52-immunized guinea-pigs (anti-Ro Abs associated QTc prolongation)
Experiment: QTc (ECG) in Ro52-immunized guinea pigs after linear peptide 4
Type: in vivo, guinea pig
Details: linear peptide 4, 2 mg/kg, one-time injection at day 15; ECG through day 30; versus immunized control without peptide
Description: Immunization and peptide administration protocol. The overall experimental protocol for immunization and administration of the peptide used to generate data in FIG. 2 is shown in FIG. 6. Specifically, two group of guinea pigs (control and experimental) were first immunized subcutaneously initially on day 0 (Do) with Ro52 antigen followed by a booster at days 10 and 15, and anti-Ro antibodies levels were monitored by ELISA. The control group was not administered any peptide treatment except the immunization. The experimental group was injected with the linear peptide #4 (2 mg/kg) at day 15.

GNMEQPHMDSRIGWLHNLGDQ [Peptide 4]
effect on QTc interval: rescued and normalized the QTc interval; also recorded: drastic shortening of QTc
